Assay results: US9624209B2, “Substituted phenylureas and phenylamides as vanilloid receptor ligands” (Gruenenthal GmbH, priority 2009, dated 2017)

Target: T1, vanilloid receptor 1 (VR1/TRPV1 receptor) (Homo sapiens, UniProt Q8NER1)
T1 construct: expressed in transfected cells; host or cells: CHO K1 cells (ECACC), stably transfected
Assay: VR1/TRPV1 receptor affinity, capsaicin stimulus (human)
Format: cell-based, human being
Parameters: key to (f) Ki (human being) [nM] Cap: result in words: AG=agonist; pAG=partial agonist; NE=no effect
Details: for Ki: Tables 8-12, read-out: (f) Ki (human being) [nM] Cap

T1 sequence (Q8NER1 whole entry): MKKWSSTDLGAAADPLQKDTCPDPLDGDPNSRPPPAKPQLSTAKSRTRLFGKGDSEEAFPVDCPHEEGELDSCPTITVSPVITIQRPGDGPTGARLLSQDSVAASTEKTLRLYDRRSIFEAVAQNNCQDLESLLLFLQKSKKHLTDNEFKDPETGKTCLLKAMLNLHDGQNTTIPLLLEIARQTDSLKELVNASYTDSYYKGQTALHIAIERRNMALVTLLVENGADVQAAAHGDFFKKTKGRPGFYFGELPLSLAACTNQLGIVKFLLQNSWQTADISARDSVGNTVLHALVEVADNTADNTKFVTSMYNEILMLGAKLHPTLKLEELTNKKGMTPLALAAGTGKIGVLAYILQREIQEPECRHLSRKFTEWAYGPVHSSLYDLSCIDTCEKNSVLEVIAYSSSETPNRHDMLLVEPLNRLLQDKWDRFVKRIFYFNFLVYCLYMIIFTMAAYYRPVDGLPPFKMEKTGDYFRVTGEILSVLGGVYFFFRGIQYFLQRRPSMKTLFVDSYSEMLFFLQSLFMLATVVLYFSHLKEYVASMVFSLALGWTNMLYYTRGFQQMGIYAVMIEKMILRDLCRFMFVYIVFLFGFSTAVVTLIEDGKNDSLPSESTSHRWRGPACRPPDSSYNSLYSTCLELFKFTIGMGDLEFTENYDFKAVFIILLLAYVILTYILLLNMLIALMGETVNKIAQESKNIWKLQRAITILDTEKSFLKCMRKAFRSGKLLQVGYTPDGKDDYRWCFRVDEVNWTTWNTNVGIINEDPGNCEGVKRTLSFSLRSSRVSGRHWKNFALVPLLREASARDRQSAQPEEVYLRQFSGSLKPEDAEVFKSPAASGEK

SMILES	Ki [nM]	other results
CC(C)(C)c1cc(CNC(=O)Nc2ccc(CNS(C)(=O)=O)c(F)c2)n(-c2ccc(F)cc2)n1 [Example B53, 1-[[5-tert-Butyl-2-(4-fluorophenyl)-2H-pyrazol-3-yl]-methyl]-3-[3-fluoro-4-(methanesulfonamido-methyl)-phenyl]-urea]	33	
CS(=O)(=O)NCc1ccc(NC(=O)NCc2cc(C(F)(F)F)nn2-c2cccc(C(F)(F)F)c2)cc1F [Example B55, 1-[3-Fluoro-4-(methanesulfonamido-methyl)-phenyl]-3-[[5-(trifluoromethyl)-2-[3-(trifluoromethyl)phenyl]-2H-pyrazol-3-yl]-methyl]-urea]	27	
CC(C)(C)c1cc(CNC(=O)Nc2ccc(CNS(N)(=O)=O)cc2)n(-c2cccc(F)c2)n1 [Example B56, 1-[[5-tert-Butyl-2-(3-fluorophenyl)-2H-pyrazol-3-yl]-methyl]-3-[4-[(sulfamoylamino)-methyl]-phenyl]-urea]	56	
NS(=O)(=O)NCc1ccc(NC(=O)NCc2cc(C(F)(F)F)nn2-c2ccc(F)c(F)c2)cc1 [Example B57, 1-[[2-(3,4-Difluoro-phenyl)-5-(trifluoromethyl)-2H-pyrazol-3-yl]-methyl]-3-[4-[(sulfamoylamino)-methyl]-phenyl]-urea]	58	
COc1cccc(-n2nc(C(F)(F)F)cc2CNC(=O)Nc2ccc(CNS(C)(=O)=O)c(F)c2)c1 [Example B58, 1-[3-Fluoro-4-(methanesulfonamido-methyl)-phenyl]-3-[[2-(3-methoxyphenyl)-5-(trifluoromethyl)-2H-pyrazol-3-yl]-methyl]-urea]	16	
CC(C)(C)c1cc(CNC(=O)Nc2ccc(CNS(N)(=O)=O)c(F)c2)n(-c2cccc(F)c2)n1 [Example B59, 1-[[5-tert-Butyl-2-(3-fluorophenyl)-2H-pyrazol-3-yl]-methyl]-3-[3-fluoro-4-[(sulfamoylamino)-methyl]-phenyl]-urea]	16	
NS(=O)(=O)NCc1ccc(NC(=O)NCc2cc(C(F)(F)F)nn2-c2cccc(F)c2)cc1F [Example B60, 1-[[2-(3-Fluorophenyl)-5-(trifluoromethyl)-2H-pyrazol-3-yl]-methyl]-3-[3-fluoro-4-[(sulfamoylamino)-methyl]-phenyl]-urea]	25	
NS(=O)(=O)NCc1ccc(NC(=O)NCc2cc(C(F)(F)F)nn2-c2ccc(F)c(F)c2)cc1F [Example B62, 1-[[2-(3,4-Difluoro-phenyl)-5-(trifluoromethyl)-2H-pyrazol-3-yl]-methyl]-3-[3-fluoro-4-[(sulfamoylamino)-methyl]-phenyl]-urea]	36	
CNCc1ccc(C(C)C(=O)NCc2cc(C(C)(C)C)nn2-c2cccc(Cl)c2)cc1F (stereo not drawn) [Example B63, N-[[5-tert-Butyl-2-(3-chlorophenyl)-2H-pyrazol-3-yl]-methyl]-2-[3-fluoro-4-(methylamino-methyl)-phenyl]-propionamide]	30	
CC(C(=O)NCc1cc(C(C)(C)C)nn1-c1cccc(Cl)c1)c1ccc(CN(C)C)c(F)c1 (stereo not drawn) [Example B64, N-[[5-tert-Butyl-2-(3-chlorophenyl)-2H-pyrazol-3-yl]-methyl]-2-[4-(dimethylaminomethyl)-3-fluoro-phenyl]-propionamide]	45	
CC(C(=O)NCc1cc(C(F)(F)F)nn1-c1cccc(Cl)c1)c1ccc(CN(C)C)c(F)c1 (stereo not drawn) [Example B65, N-[[2-(3-Chlorophenyl)-5-(trifluoromethyl)-2H-pyrazol-3-yl]-methyl]-2-[4-(dimethylaminomethyl)-3-fluoro-phenyl]-propionamide]		inhibition at 5 µM (@ 5 μM, Tables 8-12, read-out: (f) Ki (human being) [nM] Cap: inhibition (as a percentage)): 36%
CC(=O)NCc1ccc(C(C)C(=O)NCc2cc(C(F)(F)F)nn2-c2cccc(Cl)c2)cc1F (stereo not drawn) [Example B66, 2-[4-(Acetylamino-methyl)-3-fluoro-phenyl]-N-[[2-(3-chlorophenyl)-5-(trifluoromethyl)-2H-pyrazol-3-yl]-methyl]-propionamide]	29	
CC(=O)NCc1ccc(C(C)C(=O)NCc2cc(C(C)(C)C)nn2-c2cccc(Cl)c2)cc1F (stereo not drawn) [Example B67, 2-[4-(Acetylamino-methyl)-3-fluoro-phenyl]-N-[[5-tert-butyl-2-(3-chlorophenyl)-2H-pyrazol-3-yl]-methyl]-propionamide]		(f) Ki (human being) [nM] Cap: result in words (Tables 8-12): AG
CC(C)(C)c1cc(CNC(=O)Nc2ccc(CNS(N)(=O)=O)c(F)c2)n(-c2ccc(F)c(F)c2)n1 [Example B69, 1-[[5-tert-Butyl-2-(3,4-difluoro-phenyl)-2H-pyrazol-3-yl]-methyl]-3-[3-fluoro-4-[(sulfamoylamino)-methyl]-phenyl]-urea]	30	
COc1cccc(-n2nc(C(F)(F)F)cc2CNC(=O)Nc2ccc(CNS(N)(=O)=O)c(F)c2)c1 [Example B71, 1-[3-Fluoro-4-[(sulfamoylamino)-methyl]-phenyl]-3-[[2-(3-methoxyphenyl)-5-(trifluoromethyl)-2H-pyrazol-3-yl]-methyl]-urea]	41	
CC(C)(C)c1cc(CNC(=O)Nc2ccc(CNS(N)(=O)=O)cc2)n(-c2ccc(F)c(F)c2)n1 [Example B74, 1-[[5-tert-Butyl-2-(3,4-difluoro-phenyl)-2H-pyrazol-3-yl]-methyl]-3-[4-[(sulfamoylamino)-methyl]-phenyl]-urea]	37	
NS(=O)(=O)NCc1ccc(NC(=O)NCc2cc(C3CC3)nn2-c2cccc(Cl)c2)cc1 [Example B75, 1-[[2-(3-Chlorophenyl)-5-cyclopropyl-2H-pyrazol-3-yl]-methyl]-3-[4-[(sulfamoylamino)-methyl]-phenyl]-urea]	19	
NS(=O)(=O)NCc1ccc(NC(=O)NCc2cc(C(F)(F)F)nn2-c2cccc(F)c2)cc1 [Example B77, 1-[[2-(3-Fluorophenyl)-5-(trifluoromethyl)-2H-pyrazol-3-yl]-methyl]-3-[4-[(sulfamoylamino)-methyl]-phenyl]-urea]	44	
NS(=O)(=O)NCc1ccc(NC(=O)NCc2cc(C(F)(F)F)nn2-c2ccc(F)c(Cl)c2)cc1 [Example B78, 1-[[2-(3-Chloro-4-fluoro-phenyl)-5-(trifluoromethyl)-2H-pyrazol-3-yl]-methyl]-3-[4-[(sulfamoylamino)-methyl]-phenyl]-urea]	21	

More lines, in order of falling Ki, values ahead:

Ki [nM]	SMILES	other results
15	CC(C)(C)c1cc(CNC(=O)Nc2ccc(CNS(C)(=O)=O)c(F)c2)n(-c2cccc(F)c2)n1 [Example B50, 1-[[5-tert-Butyl-2-(3-fluorophenyl)-2H-pyrazol-3-yl]-methyl]-3-[3-fluoro-4-(methanesulfonamido-methyl)-phenyl]-urea]	
15	CC(C)(C)c1cc(CNC(=O)Nc2ccc(CNS(C)(=O)=O)c(F)c2)n(-c2ccc(F)c(Cl)c2)n1 [Example B51, 1-[[5-tert-Butyl-2-(3-chloro-4-fluoro-phenyl)-2H-pyrazol-3-yl]-methyl]-3-[3-fluoro-4-(methanesulfonamido-methyl)-phenyl]-urea]	
14	NS(=O)(=O)NCc1ccc(NC(=O)NCc2cc(C(F)(F)F)nn2-c2ccc(F)c(Cl)c2)cc1F [Example B70, 1-[[2-(3-Chloro-4-fluoro-phenyl)-5-(trifluoromethyl)-2H-pyrazol-3-yl]-methyl]-3-[3-fluoro-4-[(sulfamoylamino)-methyl]-phenyl]-urea]	
13	CC(C)(C)c1cc(CNC(=O)Nc2ccc(CNS(C)(=O)=O)c(F)c2)n(-c2ccc(F)c(F)c2)n1 [Example B72, 1-[[5-tert-Butyl-2-(3,4-difluoro-phenyl)-2H-pyrazol-3-yl]-methyl]-3-[3-fluoro-4-(methanesulfonamido-methyl)-phenyl]-urea]	
12	COc1cc(C(C)C(=O)NCc2cc(C(F)(F)F)nn2-c2cccc(Cl)c2)ccc1CNS(C)(=O)=O (stereo not drawn) [Example B76, N-[[2-(3-Chlorophenyl)-5-(trifluoromethyl)-2H-pyrazol-3-yl]-methyl]-2-[4-(methanesulfonamido-methyl)-3-methoxy-phenyl]-propionamide]	
11	CS(=O)(=O)NCc1ccc(NC(=O)NCc2cc(C(F)(F)F)nn2-c2ccc(F)c(F)c2)cc1F [Example B49, 1-[[2-(3,4-Difluoro-phenyl)-5-(trifluoromethyl)-2H-pyrazol-3-yl]-methyl]-3-[3-fluoro-4-(methanesulfonamido-methyl)-phenyl]-urea]	
9	CS(=O)(=O)NCc1ccc(NC(=O)NCc2cc(C(F)(F)F)nn2-c2cccc(Cl)c2)cc1F [Example B52, 1-[[2-(3-Chlorophenyl)-5-(trifluoromethyl)-2H-pyrazol-3-yl]-methyl]-3-[3-fluoro-4-(methanesulfonamido-methyl)-phenyl]-urea]	
8	CC(C)(C)c1cc(CNC(=O)Nc2ccc(CNS(C)(=O)=O)c(F)c2)n(-c2cccc(C(F)(F)F)c2)n1 [Example B54, 1-[[5-tert-Butyl-2-[3-(trifluoromethyl)phenyl]-2H-pyrazol-3-yl]-methyl]-3-[3-fluoro-4-(methanesulfonamido-methyl)-phenyl]-urea]	
8	NS(=O)(=O)NCc1ccc(NC(=O)NCc2cc(C3CC3)nn2-c2cccc(Cl)c2)cc1F [Example B61, 1-[[2-(3-Chlorophenyl)-5-cyclopropyl-2H-pyrazol-3-yl]-methyl]-3-[3-fluoro-4-[(sulfamoylamino)-methyl]-phenyl]-urea]	
4	Cc1cccc(-n2nc(C(F)(F)F)cc2CNC(=O)C(C)c2ccc(CNS(C)(=O)=O)c(F)c2)c1 (stereo not drawn) [Example B68, 2-[3-Fluoro-4-(methanesulfonamido-methyl)-phenyl]-N-[[2-(m-tolyl)-5-(trifluoromethyl)-2H-pyrazol-3-yl]-methyl]-propionamide]	
3	CC(C)c1cccc(-n2nc(C(F)(F)F)cc2CNC(=O)Nc2ccc(CNS(C)(=O)=O)c(F)c2)c1 [Example B73, 1-[3-Fluoro-4-(methanesulfonamido-methyl)-phenyl]-3-[[2-(3-isopropyl-phenyl)-5-(trifluoromethyl)-2H-pyrazol-3-yl]-methyl]-urea]	
